What was measured:
subjects with migraine [1] = test: Clinical Study Trials #1 and #2: duration of migraine headaches, topiramate with triptan rescue therapy; type: in vivo, human; conditions: for Duration of Migraine Headaches, Baseline / Duration of Migraine Headaches, Double-Blind: triptan rescue therapy; for Duration of Migraine Headaches, Double-Blind: Double-Blind Phase; for Duration of Migraine Headaches, Difference: Double-Blind minus Baseline
Method: (§1) The primary objective of these studies was to evaluate the safety and efficacy of three doses of topiramate (50, 100, and 200 mg/day) versus placebo in the prophylaxis of migraine based on the change in the monthly (28 day) migraine period rate from the Prospective Baselin,e Period to the Double-Blind Phase. The secondary objectives for the studies were to assess dose response relationship, and to evaluate the effect of prophylactic treatment with topiramate (50, 100, and 200 mg/day) versus placebo on Health-Related Quality of Life (HRQL).
(§2) The studies were randomized, double-blind, placebo-controlled, parallel-group, multicenter studies. Male and female subjects were randomized equally to the four treatment groups.
(§3) While the IHS criteria was used to establish the diagnosis at study entry, the evaluation of efficacy was based on migraine periods. A migraine period was defined as the length of time between the onset and cessation of painful migraine symptoms. This period could last up to, but no longer than, 24 hours. If the painful symptoms persisted more than 24 hours after their initial onset, this was considered to be a new, distinct migraine period. If symptoms recurred within 24 hours of the initial onset, this was considered part of the same, initial period.
(§4) Subjects who completed the Baseline Phase and met the entry criteria were randomized to one of four treatment groups: 50 mg/day topiramate, 100 mg/day topiramate, 200 mg/day topiramate or placebo. The Double-Blind Phase had two periods: Titration and Maintenance, which are described in more detail below.
(§5) The Titration Period immediately followed the Baseline Phase and extended for eight weeks (56 days). During this period, subjects randomized to topiramate were started at a dose of 25 mg/day and the daily dose was increased by 25 mg weekly until they reach their assigned dose (or maximum tolerated dose, whichever is less). From the third week of Titration until the end of the Maintenance Period, a maximum of two dose level reductions were permitted for unacceptable tolerability problems. If the subject was still in the Titration Period after a dose reduction, rechallenge may have occurred in an attempt to achieve the subject's assigned dose, and, if unsuccessful, the dose may have been reduced again to the original reduced dose. Subjects who had their study medication dose decreased twice, and were still experiencing unacceptable tolerability problems that warranted additional dose reductions, exited the study. Clinic visits occurred on Day 29 (Visit 3) and Day 57 (Visit 4/End of Titration).
(§6) During this 18-week period, the subjects remained on the dose of study medication reached at the end of the Titration Period (the assigned dose or the maximum tolerated dose). If the subject experienced unacceptable tolerability problems, the dose was reduced, only one dose reduction was permitted in the maintenance. No rechallenge was permitted during the Maintenance Period, so that subject continued on the reduced dose for the remainder of the period. Subjects who already had their study medication dose decreased by two levels, and were still experiencing unacceptable tolerability problems that warranted additional dose reductions exited the study. Clinic visits occurred on Day 85 (Visit 5), Day 113 (Visit 6), Day 141 (Visit 7) and Day 183 (Visit 8/ Double-Blind Final Visit or Early Withdrawal).
(§7) Subjects were randomized to one of four treatment groups: a) placebo, b) 50 mg/day topiramate, c) 100 mg/day topiramate, or d) 200 mg/day topiramate. All subjects received study medication in a b.i.d. dosing regimen except during the first week of Titration, during which they took single evening doses.
(§8) In keeping with good pain management practices, subjects enrolled in these studies were permitted to take acute abortive/rescue medication as indicated for the treatment of pain during migraine/headache attacks. […]

subjects with migraine [2] = test: Clinical Study Trials #1 and #2: severity of photophobia associated with migraine headaches; type: in vivo, human; conditions: for Severity of Photophobia Associated Migraine Headaches, Baseline / Severity of Photophobia Associated Migraine Headaches, Double-Blind / Severity of Photophobia Associated Migraine Headaches, Difference: scale 0 to 3; for Severity of Photophobia Associated Migraine Headaches, Baseline / Severity of Photophobia Associated Migraine Headaches, Double-Blind: triptan rescue therapy; for Severity of Photophobia Associated Migraine Headaches, Double-Blind: Double-Blind Phase; for Severity of Photophobia Associated Migraine Headaches, Difference: Double-Blind minus Baseline
Method: as §1, §2, §3, §4, §5, §6, §7, §8

## CC1(C)O[C@@H]2[C@@H](CO[C@@]3(COS(N)(=O)=O)OC(C)(C)O[C@@H]23)O1 [topiramate, 2,3:4,5-bis-O-(1-methylethylidene)-β-D-fructopyranose sulfamate]
Subjects with migraine [1]; 200 mg topiramate treatment
  Effect on duration of headaches (in words): duration of headaches increased
Subjects with migraine [1]; TPM 50 mg
  Duration of Migraine Headaches, Baseline: 12.77 h
  Duration of Migraine Headaches, Double-Blind: 11.60 h
  Duration of Migraine Headaches, Difference: -1.17 h
Subjects with migraine [1]; TPM 100 mg
  Duration of Migraine Headaches, Baseline: 14.75 h
  Duration of Migraine Headaches, Double-Blind: 13.17 h
  Duration of Migraine Headaches, Difference: -1.59 h
Subjects with migraine [1]; TPM 200 mg
  Duration of Migraine Headaches, Baseline: 10.84 h
  Duration of Migraine Headaches, Double-Blind: 12.05 h
  Duration of Migraine Headaches, Difference: +1.21 hours
Subjects with migraine [1]; topiramate with triptan rescue medications, groups taking 50 mg and 100 mg
  Effect on duration of a migraine headache (in words): numerically measurable decrease in the duration of a migraine headache
Subjects with migraine [2]; TPM 50 mg
  Severity of Photophobia Associated Migraine Headaches, Baseline: 1.83
  Severity of Photophobia Associated Migraine Headaches, Double-Blind: 1.68
  Severity of Photophobia Associated Migraine Headaches, Difference: −0.14
Subjects with migraine [2]; TPM 100 mg
  Severity of Photophobia Associated Migraine Headaches, Baseline: 1.77
  Severity of Photophobia Associated Migraine Headaches, Double-Blind: 1.58
  Severity of Photophobia Associated Migraine Headaches, Difference: −0.19
Subjects with migraine [2]; TPM 200 mg
  Severity of Photophobia Associated Migraine Headaches, Baseline: 1.62
  Severity of Photophobia Associated Migraine Headaches, Double-Blind: 1.57
  Severity of Photophobia Associated Migraine Headaches, Difference: −0.05
Subjects with migraine [2]; patients taking 100 mg topiramate in Study 1
  Statistical significance of effect, text under Table 4 (in words): Statistically significant differences in the severity of nausea
Subjects with migraine [2]; topiramate with triptan rescue medication vs triptan rescue alone, measurable at 50 mg and 100 mg
  Effect on severity of associated photophobia (in words): decreased the severity of associated photophobia

— patent US20030225002A1, “Co-therapy for the treatment of migraine comprising anticonvulsant derivatives and anti-migraine agents” (priority 2002, published 2003)
